# Key:
# [1] = Inhibitory activity of compound against very late antigen 4 using VCAM-Ig ligand; set-up: species or system Rattus norvegicus
# Integrin alpha-4/beta-7 = biological target: T1, Integrin alpha-4/beta-7 (Homo sapiens, UniProt P13612+P26010); assay: Inhibitory activity of compound against alpha4-beta7 integrin using MAdCAM-Ig ligand; format: protein-complex assay
# T1 sequence (P13612 whole entry): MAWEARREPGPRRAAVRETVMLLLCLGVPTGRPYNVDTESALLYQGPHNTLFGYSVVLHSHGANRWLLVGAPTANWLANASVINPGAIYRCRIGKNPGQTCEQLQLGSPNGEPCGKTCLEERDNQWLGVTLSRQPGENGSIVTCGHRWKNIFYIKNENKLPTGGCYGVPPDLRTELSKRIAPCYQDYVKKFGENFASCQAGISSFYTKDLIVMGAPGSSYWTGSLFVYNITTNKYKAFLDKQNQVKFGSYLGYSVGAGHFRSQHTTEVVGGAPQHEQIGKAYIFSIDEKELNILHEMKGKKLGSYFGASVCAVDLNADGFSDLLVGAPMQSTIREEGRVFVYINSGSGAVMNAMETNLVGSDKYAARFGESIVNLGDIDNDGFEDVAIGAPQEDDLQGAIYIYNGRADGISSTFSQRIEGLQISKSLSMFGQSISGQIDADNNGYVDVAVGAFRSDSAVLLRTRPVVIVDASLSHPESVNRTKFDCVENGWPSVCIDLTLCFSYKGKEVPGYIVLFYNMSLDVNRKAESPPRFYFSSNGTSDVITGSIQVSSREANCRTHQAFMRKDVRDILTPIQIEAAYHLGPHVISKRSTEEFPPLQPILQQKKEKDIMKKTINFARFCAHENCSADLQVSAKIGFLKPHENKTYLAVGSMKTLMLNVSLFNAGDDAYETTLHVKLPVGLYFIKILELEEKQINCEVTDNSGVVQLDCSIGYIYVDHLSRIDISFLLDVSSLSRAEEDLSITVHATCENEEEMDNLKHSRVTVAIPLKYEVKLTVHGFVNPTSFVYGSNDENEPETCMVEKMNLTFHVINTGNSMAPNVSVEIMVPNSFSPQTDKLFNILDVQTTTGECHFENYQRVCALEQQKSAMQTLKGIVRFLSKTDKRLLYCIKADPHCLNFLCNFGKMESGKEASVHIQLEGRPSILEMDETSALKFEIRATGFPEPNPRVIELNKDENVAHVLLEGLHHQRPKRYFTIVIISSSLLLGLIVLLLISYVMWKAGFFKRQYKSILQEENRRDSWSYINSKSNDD
# T1 sequence (P26010 whole entry): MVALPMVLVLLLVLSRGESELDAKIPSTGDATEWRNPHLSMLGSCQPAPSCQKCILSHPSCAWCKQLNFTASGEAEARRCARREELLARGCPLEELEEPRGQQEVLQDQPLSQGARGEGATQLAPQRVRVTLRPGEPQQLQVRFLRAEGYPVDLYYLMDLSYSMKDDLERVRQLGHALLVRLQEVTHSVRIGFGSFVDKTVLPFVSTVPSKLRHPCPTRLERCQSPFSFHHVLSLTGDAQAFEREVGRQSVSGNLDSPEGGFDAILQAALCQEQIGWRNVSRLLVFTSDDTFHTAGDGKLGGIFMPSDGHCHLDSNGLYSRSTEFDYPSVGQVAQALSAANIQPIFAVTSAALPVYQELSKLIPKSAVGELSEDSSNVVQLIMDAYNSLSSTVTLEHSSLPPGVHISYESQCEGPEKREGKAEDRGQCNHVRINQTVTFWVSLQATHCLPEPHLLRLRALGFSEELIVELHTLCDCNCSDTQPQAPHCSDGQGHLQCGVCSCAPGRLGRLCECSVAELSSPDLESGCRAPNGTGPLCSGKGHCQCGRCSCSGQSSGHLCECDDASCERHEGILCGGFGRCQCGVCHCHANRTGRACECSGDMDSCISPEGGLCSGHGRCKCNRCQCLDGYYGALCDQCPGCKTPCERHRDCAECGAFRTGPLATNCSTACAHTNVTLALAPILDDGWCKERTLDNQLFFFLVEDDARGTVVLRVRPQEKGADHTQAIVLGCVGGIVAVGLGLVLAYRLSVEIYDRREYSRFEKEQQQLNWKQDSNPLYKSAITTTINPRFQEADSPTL
# [2] = Dissociation constant was evaluated; format: physicochemical
# [3] = Plasma clearance of compound in rats was evaluated; format: ADME, organism-based; details: rat, read-out: Clp
# [4] = Bioavailability in rat (dose 1 mg/kg i.v. and 2 mg/kg p.o.); format: ADME, organism-based; details: in vivo, po
# [5] = Partition coefficient (logD); format: physicochemical; details: octanol/water
# [6] = biological target: Integrin alpha-4/beta-1 (Homo sapiens) (UniProt P05556+P13612); assay: Inhibition of VCAM-Ig binding to very late activating antigen-4 (VLA-4) at 10 uM; format: protein-complex assay
IC50 [1] [nM],IC50 (Integrin alpha-4/beta-7) [nM],pKa [2],clearance [3] [mL/min/kg],bioavailability [4] [%],logD [5],inhibition [6] [%],SMILES
15,3000,,,,,,COc1cccc(OC)c1-c1ccc(C[C@H](OC(=O)[C@@H]2CCN2S(=O)(=O)c2cc(Cl)cc(Cl)c2)C(=O)O)cc1
0.12,40,10.5,81,0.7,2.4,,CN/C(=N\[C@@H](Cc1ccc(-c2c(OC)cccc2OC)cc1)C(=O)O)[C@@H]1CCN1S(=O)(=O)c1ccccc1
0.08,,,102,,4,,COc1cccc(OC)c1-c1ccc(C[C@H](NC(=O)[C@@H]2CCN2S(=O)(=O)c2cc(Cl)cc(Cl)c2)C(=O)O)cc1
0.09,4.1,-2,93,3,2.5,,COc1cccc(OC)c1-c1ccc(C[C@H](/N=C(\NC#N)[C@@H]2CCN2S(=O)(=O)c2ccccc2)C(=O)O)cc1
0.1,78,,107,1.4,2.6,,COc1cccc(OC)c1-c1ccc(C[C@H](NC(=O)[C@@H]2CCN2S(=O)(=O)c2ccccc2)C(=O)O)cc1
,4090,,382,0.6,,85,COc1cccc(OC)c1-c1ccc(C[C@@H]2/N=C(/[C@@H]3CCN3S(=O)(=O)c3ccccc3)NCc3nccn3C2=O)cc1
0.13,27,,45,1.8,3.3,,COc1cccc(OC)c1-c1ccc(C[C@H](/N=C(\NCC(F)(F)F)[C@@H]2CCN2S(=O)(=O)c2ccccc2)C(=O)O)cc1
58,,,86,3.3,3.2,,COc1cccc(OC)c1-c1ccc(C[C@@H]2N=C([C@@H]3CCN3S(=O)(=O)c3ccccc3)NNC2=O)cc1
0.1,19,,61,0.2,,,COc1cccc(OC)c1-c1ccc(C[C@H](/N=C(\N)[C@@H]2CCN2S(=O)(=O)c2ccccc2)C(=O)O)cc1
0.21,120,,64,0,3.7,,COc1cccc(OC)c1-c1ccc(C[C@H](/N=C(\NCC(C)(C)C)[C@@H]2CCN2S(=O)(=O)c2ccccc2)C(=O)O)cc1
0.14,98,,,,2.3,,COc1cccc(OC)c1-c1ccc(C[C@H](/N=C(\NO)[C@@H]2CCN2S(=O)(=O)c2ccccc2)C(=O)O)cc1
0.07,2.2,-2,103,1.6,2.4,,COc1cccc(OC)c1-c1ccc(C[C@H](/N=C(\NS(C)(=O)=O)[C@@H]2CCN2S(=O)(=O)c2ccccc2)C(=O)O)cc1
0.05,21,10.2,85,0.8,2.7,,CN/C(=N\[C@@H](Cc1ccc(-c2c(OC)cccc2OC)cc1)C(=O)O)[C@@H]1CCN1S(=O)(=O)c1cc(Cl)cc(Cl)c1
140,8400,,,,,,COc1cccc(OC)c1-c1ccc(C[C@H](NC[C@@H]2CCCN2S(=O)(=O)c2cc(Cl)cc(Cl)c2)C(=O)O)cc1
0.17,35,< 4,79,9.3,2.8,,CON/C(=N\[C@@H](Cc1ccc(-c2c(OC)cccc2OC)cc1)C(=O)O)[C@@H]1CCN1S(=O)(=O)c1ccccc1
0.05,16,,90,0.3,4.1,,COc1cccc(OC)c1-c1ccc(C[C@H](/N=C(\N)[C@@H]2CCN2S(=O)(=O)c2cc(Cl)cc(Cl)c2)C(=O)O)cc1
0.07,,,110,,,,COc1cccc(OC)c1-c1ccc(C[C@H](NC(=O)[C@]2(C)CCN2S(=O)(=O)c2cc(Cl)cc(Cl)c2)C(=O)O)cc1
0.15,35,,,,2.8,,COc1cccc(OC)c1-c1ccc(C[C@H](/N=C(\NCc2ccccn2)[C@@H]2CCN2S(=O)(=O)c2ccccc2)C(=O)O)cc1
350,,,,,,,COc1cccc(OC)c1-c1ccc(C[C@@H](C(=O)O)N(C)C(=O)[C@@H]2CCN2S(=O)(=O)c2cc(Cl)cc(Cl)c2)cc1
0.17,78,,,,1.9,,COc1cccc(OC)c1-c1ccc(C[C@H](/N=C(\NCC(=O)O)[C@@H]2CCN2S(=O)(=O)c2ccccc2)C(=O)O)cc1
0.28,65,,81,0,,,COCCN/C(=N\[C@@H](Cc1ccc(-c2c(OC)cccc2OC)cc1)C(=O)O)[C@@H]1CCN1S(=O)(=O)c1ccccc1

SMILES,IC50 [1] [nM],IC50 (Integrin alpha-4/beta-7) [nM],pKa [2],clearance [3] [mL/min/kg],bioavailability [4] [%],logD [5],inhibition [6] [%]
COc1cccc(OC)c1-c1ccc(C[C@H](/N=C(\NCC2CCOOCC2)[C@@H]2CCN2S(=O)(=O)c2ccccc2)C(=O)O)cc1,0.28,43,,67,0.6,2.6,

# — ChEMBL document CHEMBL1148235, “Amidines as amide bond replacements in VLA-4 antagonists” (Bioorg Med Chem Lett, 2004)
